Data: US12059422B2 (MEI Pharma, Inc., priority 2011, dated 2024)

biological target: T1, PI3K alpha (Homo sapiens, UniProt P42336); experiment: Luciferase-based luminescence assay (KinaseGlo), PI3K alpha enzymatic activity; format: biochemical; settings: inhibition of enzymatic activity, 25 μM ATP, read-out: IC50 p110α
T1 construct: purchased Invitrogen Corp., Carlsbad, CA, USA
Summary of the method: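 KinaseGlo luminescence measured ATP remaining after PIP2 (50 μM) phosphorylation with 25 μM ATP in HEPES pH 7.5 buffer with CHAPS and DTT. Final enzyme was 1.65 nM alpha (1 h reaction) or 6.86 nM delta (2 h reaction). IC50 was curve-fitted from 10 concentrations.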

T1 sequence (P42336 whole entry, species assumed): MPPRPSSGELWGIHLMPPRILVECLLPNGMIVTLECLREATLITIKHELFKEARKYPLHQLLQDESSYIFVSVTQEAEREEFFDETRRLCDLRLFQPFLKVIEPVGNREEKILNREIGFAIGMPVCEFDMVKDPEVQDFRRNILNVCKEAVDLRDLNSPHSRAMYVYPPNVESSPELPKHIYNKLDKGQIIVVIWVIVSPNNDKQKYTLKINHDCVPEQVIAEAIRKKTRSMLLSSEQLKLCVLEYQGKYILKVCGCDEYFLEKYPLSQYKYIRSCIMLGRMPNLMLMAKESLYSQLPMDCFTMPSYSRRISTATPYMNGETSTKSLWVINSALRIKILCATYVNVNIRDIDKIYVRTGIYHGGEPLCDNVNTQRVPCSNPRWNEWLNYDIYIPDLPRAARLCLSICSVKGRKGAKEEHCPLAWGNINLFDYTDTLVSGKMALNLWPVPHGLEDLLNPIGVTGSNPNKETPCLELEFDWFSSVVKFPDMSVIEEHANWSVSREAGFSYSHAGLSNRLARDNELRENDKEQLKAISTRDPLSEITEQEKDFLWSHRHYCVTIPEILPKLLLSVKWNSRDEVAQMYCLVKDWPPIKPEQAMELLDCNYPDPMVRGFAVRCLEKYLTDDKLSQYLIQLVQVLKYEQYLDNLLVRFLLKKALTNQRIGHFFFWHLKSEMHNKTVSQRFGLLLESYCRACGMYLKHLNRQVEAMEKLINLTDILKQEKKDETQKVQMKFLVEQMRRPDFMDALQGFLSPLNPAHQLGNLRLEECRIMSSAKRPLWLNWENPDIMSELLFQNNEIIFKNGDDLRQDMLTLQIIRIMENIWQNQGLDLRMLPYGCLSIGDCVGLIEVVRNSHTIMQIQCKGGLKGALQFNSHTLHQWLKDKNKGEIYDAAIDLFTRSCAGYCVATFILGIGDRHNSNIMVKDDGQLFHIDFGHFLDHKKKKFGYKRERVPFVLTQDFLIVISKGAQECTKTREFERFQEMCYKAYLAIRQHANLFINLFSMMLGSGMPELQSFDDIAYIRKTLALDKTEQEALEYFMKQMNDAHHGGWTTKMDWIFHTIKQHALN
T1 sequence (P27986 whole entry partner, species assumed): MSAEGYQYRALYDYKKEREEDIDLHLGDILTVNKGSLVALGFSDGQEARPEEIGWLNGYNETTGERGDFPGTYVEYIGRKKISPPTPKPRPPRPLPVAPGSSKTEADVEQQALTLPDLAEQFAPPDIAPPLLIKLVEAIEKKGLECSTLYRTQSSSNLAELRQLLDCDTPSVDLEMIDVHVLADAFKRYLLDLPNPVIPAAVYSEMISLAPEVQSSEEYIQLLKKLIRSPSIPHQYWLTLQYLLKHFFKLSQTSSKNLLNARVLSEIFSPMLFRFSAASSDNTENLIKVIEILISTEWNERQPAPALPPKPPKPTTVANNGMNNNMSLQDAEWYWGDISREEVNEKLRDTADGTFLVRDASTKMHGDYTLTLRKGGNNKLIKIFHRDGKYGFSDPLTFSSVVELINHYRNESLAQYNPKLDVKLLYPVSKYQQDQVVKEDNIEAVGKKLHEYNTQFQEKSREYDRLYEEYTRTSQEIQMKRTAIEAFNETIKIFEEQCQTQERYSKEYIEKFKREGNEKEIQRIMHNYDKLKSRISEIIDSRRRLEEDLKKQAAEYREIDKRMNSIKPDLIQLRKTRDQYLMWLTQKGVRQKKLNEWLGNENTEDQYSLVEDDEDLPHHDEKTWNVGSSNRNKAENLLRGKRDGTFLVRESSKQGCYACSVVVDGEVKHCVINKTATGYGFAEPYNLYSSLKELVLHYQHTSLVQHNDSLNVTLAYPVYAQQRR

How did the IC50 turn out when `CN1CCN(c2cc(-c3ccccc3CC(C)(C)Nc3nc(N4CCOCC4)nc(-n4c(C(F)F)nc5ccccc54)n3)ccn2)CC1` [Compound A64, 4-(2-(difluoromethyl)-1H-benzo[d]imidazol-1-yl)-N-(2-methyl-1-(2-(2-(4-methylpiperazin-1-yl)pyridin-4-yl)phenyl)propan-2-yl)-6-morpholino-1,3,5-triazin-2-amine] was run?
Its IC50 is over 500 nM.

For `CC(C)(Cc1ccccc1-c1cccc(CN2CCOCC2)c1)Nc1nc(N2CCOCC2)nc(-n2c(C(F)F)nc3ccccc32)n1` [Compound A65, 4-(2-(difluoromethyl)-1H-benzo[d]imidazol-1-yl)-N-(2-methyl-1-(3′-(morpholinomethyl)biphenyl-2-yl)propan-2-yl)-6-morpholino-1,3,5-triazin-2-amine], which IC50 is on record?
Its IC50 is over 500 nM.

Which IC50 does the source give for `COc1cccc(-c2ccccc2CC(C)(C)Nc2nc(N3CCOCC3)nc(-n3c(C(F)F)nc4ccccc43)n2)c1` [Compound A66, 4-(2-(difluoromethyl)-1H-benzo[d]imidazol-1-yl)-N-(1-(3′-methoxybiphenyl-2-yl)-2-methylpropan-2-yl)-6-morpholino-1,3,5-triazin-2-amine] here?
Its IC50 is over 500 nM.

Which IC50 does the source give for `COc1ccc(-c2ccccc2CC(C)(C)Nc2nc(N3CCOCC3)nc(-n3c(C(F)F)nc4ccccc43)n2)cc1` [Compound A67, 4-(2-(difluoromethyl)-1H-benzo[d]imidazol-1-yl)-N-(1-(4′-methoxybiphenyl-2-yl)-2-methylpropan-2-yl)-6-morpholino-1,3,5-triazin-2-amine] here?
Its IC50 is over 500 nM.

Which IC50 does the source give for `CC(C)(Cc1ccccc1C1CCNCC1)Nc1nc(N2CCOCC2)nc(-n2c(C(F)F)nc3ccccc32)n1` [Compound A68, 4-(2-(difluoromethyl)-1H-benzo[d]imidazol-1-yl)-N-(2-methyl-1-(2-(piperidin-4-yl)phenyl)propan-2-yl)-6-morpholino-1,3,5-triazin-2-amine] here?
Its IC50 is over 500 nM.

With `CCN1CCC(c2ccccc2CC(C)(C)Nc2nc(N3CCOCC3)nc(-n3c(C(F)F)nc4ccccc43)n2)CC1` [Compound A70, 4-(2-(difluoromethyl)-1H-benzo[d]imidazol-1-yl)-N-(1-(2-(1-ethylpiperidin-4-yl)phenyl)-2-methylpropan-2-yl)-6-morpholino-1,3,5-triazin-2-amine] as the compound, how does the IC50 read?
The IC50 was over 500 nM.

`CC(C)N1CCC(c2ccccc2CC(C)(C)Nc2nc(N3CCOCC3)nc(-n3c(C(F)F)nc4ccccc43)n2)CC1` [Compound A71, 4-(2-(difluoromethyl)-1H-benzo[d]imidazol-1-yl)-N-(1-(2-(1-isopropylpiperidin-4-yl)phenyl)-2-methylpropan-2-yl)-6-morpholino-1,3,5-triazin-2-amine] was tested. Which IC50 did it give?
The IC50 was over 500 nM.

For `CC(=O)N1CCC(c2ccccc2CC(C)(C)Nc2nc(N3CCOCC3)nc(-n3c(C(F)F)nc4ccccc43)n2)CC1` [Compound A72, 4-(2-(difluoromethyl)-1H-benzo[d]imidazol-1-yl)-N-(2-methyl-1-(2-(1-acetylpiperidin-4-yl)phenyl)propan-2-yl)-6-morpholino-1,3,5-triazin-2-amine], which IC50 is on record?
The IC50 was 100 to 200 nM.

How did the IC50 turn out when `CC(C)(Cc1ccccc1C1CCN(S(C)(=O)=O)CC1)Nc1nc(N2CCOCC2)nc(-n2c(C(F)F)nc3ccccc32)n1` [Compound A73, 4-(2-(difluoromethyl)-1H-benzo[d]imidazol-1-yl)-N-(2-methyl-1-(2-(1-(methylsulfonyl)piperidin-4-yl)phenyl)propan-2-yl)-6-morpholino-1,3,5-triazin-2-amine] was run?
The IC50 was 200 to 500 nM.

How did the IC50 turn out when `CC(C)(Cc1ccccc1C1CCNC1)Nc1nc(N2CCOCC2)nc(-n2c(C(F)F)nc3ccccc32)n1` (centres unmarked) [Compound A74, 4-(2-(difluoromethyl)-1H-benzo[d]imidazol-1-yl)-N-(2-methyl-1-(2-(pyrrolidin-3-yl)phenyl)propan-2-yl)-6-morpholino-1,3,5-triazin-2-amine] was run?
The IC50 was over 500 nM.

With `CN(C)CCCc1ccccc1CC(C)(C)Nc1nc(N2CCOCC2)nc(-n2c(C(F)F)nc3ccccc32)n1` [Compound A76, 4-(2-(difluoromethyl)-1H-benzo[d]imidazol-1-yl)-N-(1-(2-(3-(dimethylamino)propyl)phenyl)-2-methylpropan-2-yl)-6-morpholino-1,3,5-triazin-2-amine] as the compound, how does the IC50 read?
Its IC50 is over 500 nM.
